Experimental data as given in patent US20210186997A1, “METHODS AND COMPOSITIONS FOR INCREASING NAD LEVEL IN MAMMALS WITH D-RIBOSE AND VITAMIN B3” (Bioenergy Life Science, Inc., priority 2018, published 2021).
Entries after “also recorded” stand apart in the source; their conditions may differ.

How the values were obtained:
NAD levels = assay: Experiment 1: NAD levels in blood by LC/MS after bolus administration; type: in vivo, Sprague-Dawley rats; conditions: for NAD levels in blood: male rats, bolus 100 mg per kg of body weight, 0.25-24 hours after feeding, compared to baseline, FIG. 1
Experimental: Four groups of four male Sprague-Dawley rats were each bolus administered the different compounds identified in the table below at a dosage of 100 mg per kg of body weight:
A blood sample of 0.1 ml was drawn from each rat of each group at increments of 0.25, 0.5, 1, 2, 4, 8 and 24 hours after feeding. Each of the blood samples were then measured by Liquid Chromatography/Mass Spectrometry (LC/MS) for NAD levels. The measured NAD levels are charted in FIG. 1, with each data point being the average of the four rats of each group.

NR levels = assay: Experiment 1: NR levels in blood by LC/MS after bolus administration; type: in vivo, Sprague-Dawley rats; conditions: male rats, bolus 100 mg/kg, 0.25-24 hours after feeding, compared to baseline, FIG. 2
Experimental: Four groups of four male Sprague-Dawley rats were each bolus administered the different compounds identified in the table below at a dosage of 100 mg per kg of body weight: [table] The blood drawn from each of the groups at the increments referenced above were also measured by LC/MS for NR levels. The measured NR levels are charted in FIG. 2, with each data point being the average of three animals of the same sex.

NAD+ = assay: Experiment 3: NAD+ in blood by LC/MS/MS, oral dosing twice daily for five days; type: in vivo, Sprague-Dawley male rats; conditions: Nicotinamide control (coated nicotinamide 108 mg/kg PO BID), relative to RiaGev dose-response line, FIG. 11
Experimental: Eighteen Sprague-Dawley male rats were selected as test animals in the study, with three rats for each of six treatment groups. Sprague-Dawley male rats were selected because they have been widely used in similar experiments with reliable results. The use of three rats per group offers the minimum number required to calculate useful means and standard deviations for graphical representation of the data. For five consecutive days, the rats were dosed at approximately 7:30-8:30 a.m. and at approximately 4:30-5:45 p.m. Blood was collected approximately 0.5 to 1.5 hours following each p.m. dosing and immediately processed and assayed for NAD+, NMN, and NR by LC/MS/MS. The timing of the supplementation doses was chosen to mimic behavior in humans and other non-nocturnal mammals (i.e., diurnal mammals) of eating breakfast in the morning and dinner in the early evening by administering the doses to the animals at around those times. […] Thus the evening sampling time for the rats would correspond to the morning for humans and other diurnal mammals. The animals were humanely euthanized after the final blood draw and representative samples of the liver, biceps muscle, peripheral adipose tissue, and whole brain were collected, snap frozen, extracted, and assayed for NAD+, NMN, and NR by LC/MS/MS. […]

Compound | time to peak blood NAD level (NAD levels; after consumption) | NAD levels in blood (NAD levels) | NR levels in blood (NR levels) | blood NAD concentration change over its base (water control) level (NAD+)
NC(=O)c1ccc[n+]([C@@H]2O[C@H](CO)[C@@H](O)[C@H]2O)c1 [Nicotinamide Riboside (NR), Nicotinamide Riboside] | about 8 hours | highest peak value | – | –
O=C(O)c1cccnc1 [Niacin, Nicotinic Acid (Niacin)] | – | elevated NAD levels | enhance NR levels | –
NC(=O)c1cccnc1 [Nicotinamide] | – | – | – | outside of the line
O=C[C@H](O)[C@H](O)[C@H](O)CO [D-ribose] | – | elevated NAD levels; also recorded: increases NAD levels | enhance NR levels | –
